Data published in patent US20100183600A1, “RAF Inhibitors and Their Uses” (ARQULE, INC., priority 2008, published 2010).
Like-named read-outs stand apart in the source and are kept apart here.

Experiments:
[1] = test system: p-Erk (A375); assay: Cell-based phosphorylation assay with electroblotting readout; set-up: species or system human; settings: A375 cells; for EC50: Homo sapiens, A-375, 1 hr
Source text: Compounds of the present invention have been screened for their ability to inhibit all isoforms, both wild-type and mutant of RAF kinases (A-RAF, B-RAF and C-RAF) in general, and the mutant B-RAF (V600E) in particular in human cancer cells. A375 is a human melanoma cell line that harbors the most common B-RAF mutation-V600E found in human cancers. The ability of compounds to inhibit RAF kinases in this assay is correlated with the reduction of MEK and ERK phosphorylation, and is therefore a direct indicator of potential in vivo therapeutic activity.
Materials: A375 cells from ATCC were maintained at 37° C., 5% CO2 in DMEM media supplemented with 10% fetal bovine serum, penicillin/streptomycin and fungizone. (Invitrogen)
Methods: Test compounds were dissolved and diluted 1:1000 in DMSO. A375 cells were seeded in six-well tissue culture plates at 5-8×10^5 per well and cultured at 37° C. for 24 h. Cells were incubated with compounds for one hour before being lysed in EPage™ loading buffer (Invitrogen). Lysates were electrophoresed on 8% EPage™ gels and transferred to polyvinylidene difluoride membranes. After incubations with primary and secondary antibodies, the immunostained proteins were detected and quantitated by an Odyssey infrared imager (LI-COR). Analysis was performed by non-linear regression to generate a dose response curve. The calculated IC50 value was the concentration of the test compound that causes a 50% decrease in phospho-MEK and phospho-ERK levels. The primary antibodies used were anti-MEK (Stressgen), anti-ERK (BD Biosciences), anti-phospho-ERK and anti-phospho-MEK (Cell Signaling). The secondary antibodies used were IRDYE800 anti-rabbit, IRDYE 800 anti-mouse (Rockland), AlexaFluor680 anti-mouse and AlexaFluoro680 anti-rabbit (Invitrogen).
A375 cells were treated with 0, 12, 37, 111, 333 and 1000 nM of indicated compounds for 1 hr. The levels of Phospho-ERK and total-ERK were accessed by immunoblotting.

[2] = target: T1, mutant B-RAF (Homo sapiens, UniProt P15056, V600E); assay: Measurement of RAF activity (MEK-1 phosphorylation); assay type: biochemical; settings: for increase in IC50 relative to compound 14: mutant B-RAF
T1 construct: purchased Upstate (Charlottesville, Va.)
T1 sequence (P15056 whole entry V600E): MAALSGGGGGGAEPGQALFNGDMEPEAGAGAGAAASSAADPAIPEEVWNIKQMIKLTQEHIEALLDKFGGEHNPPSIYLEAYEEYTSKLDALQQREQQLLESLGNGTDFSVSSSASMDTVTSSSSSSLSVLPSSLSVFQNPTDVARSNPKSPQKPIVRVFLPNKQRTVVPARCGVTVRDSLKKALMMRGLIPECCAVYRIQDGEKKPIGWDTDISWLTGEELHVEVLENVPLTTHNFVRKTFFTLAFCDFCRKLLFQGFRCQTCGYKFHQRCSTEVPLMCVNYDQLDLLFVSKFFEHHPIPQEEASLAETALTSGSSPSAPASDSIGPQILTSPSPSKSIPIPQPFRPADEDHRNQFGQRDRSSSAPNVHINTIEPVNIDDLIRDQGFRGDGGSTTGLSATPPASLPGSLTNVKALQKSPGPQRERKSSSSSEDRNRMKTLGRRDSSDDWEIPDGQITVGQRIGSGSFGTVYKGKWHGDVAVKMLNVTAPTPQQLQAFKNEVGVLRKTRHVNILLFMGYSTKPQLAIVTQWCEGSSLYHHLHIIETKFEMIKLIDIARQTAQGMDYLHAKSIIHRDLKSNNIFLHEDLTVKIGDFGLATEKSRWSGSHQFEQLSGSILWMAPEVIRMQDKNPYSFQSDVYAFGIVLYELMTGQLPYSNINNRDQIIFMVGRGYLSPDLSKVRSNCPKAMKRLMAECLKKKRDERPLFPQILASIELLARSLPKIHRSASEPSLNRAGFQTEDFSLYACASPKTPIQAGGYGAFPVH
Experimental: Materials: The RAF kinases and the anti-phospho MEK1/2 antibody were from Upstate (Charlottesville, Va.). The RAF substrate used was full length N-terminal GST-MEK-1, which was expressed in E. coli and purified in-house by HPLC. All proteins were aliquoted and stored at −80° C. Superblock™ in phosphate buffered saline (PBS) blocking reagent was form Pierce (cat. #37515). ATP was from Roche (cat. # 19035722). Alkaline Phosphatase-tagged goat anti-rabbit antibody was from Pierce (cat. # 31340).
Methods: All RAF biochemical assays were performed using an assay buffer containing 20 mM MOPS, 5 mM EGTA, 37.5 mM MgCl2, 1 mM DTT and 50 μM ATP. There was 6.25 ng/well mutant B-RAF and 7.5 ng/well MEK-1 in the final assay conditions. Compounds were serially diluted in assay buffer containing 1% DMSO and 20 μl of test compound at a concentration 3-fold more than the final concentration, and were added to a polypropylene V-well reaction plate. Vehicle control wells received buffer only with DMSO at equivalent concentrations to the test wells. […] These reaction plates were incubated at room temperature for 30 minutes. Capture of MEK-1 was initiated by transferring 50 μl of the reaction mixture to a Nunc Maxisorp™ microplate that is designed for non-specific protein capture. After 30 minute capture of MEK-1 at room temperature, this plate was washed with TBST (6×200 μL/well) to fully terminate the reaction. The plate was then blocked for 1 hour by the addition of 100 μl/well of Superblock™ in phosphate buffered saline (PBS) blocking reagent. Plate was again washed with TBST (6 times with 200 μl/well), followed by the addition of 70 μl/well of Upstate anti-phospho MEK ½ diluted 1:1000 in Pierce Superblock (PBS). After a 60 minute incubation, this plate was washed with TBST (6 times with 200 μl/well), and 70 μl of the secondary antibody (Pierce Alkaline Phosphatase tagged goat anti-rabbit) prepared at 1:4000 in Superblock, were added. After a 45 minute incubation at room temperature, the wells of the microplate were washed with TBST (6 times with 200 μl/well), and thereafter 100 μl/well of Attophos™ fluorescent alkaline phosphatase substrate was added according to the manufacturer's instructions (JBL Scientific). Fluorescence was read on a Perkin Elmer Envision multilabel reader, using the following filters: Excitation Filter: CFP430 nM, Emission Filter: Emission Filter 579 nM.

[3] = 50 μM ATP, MEK-1 substrate, read-out: Mut-B-Raf IC50

Row | EC50 [1] | IC50 [2, 3] | Compound | IC50 [2] | deviation in EC50 (cell-based ERK inhibition) relative to compound 14 [1] | increase in IC50 relative to compound 14 [2]
1 | 12 nM | 1410 nM | O=P(O)(O)OCOc1cccc(-c2nc3occn3c2-c2ccnc(N[C@@H]3CCCN(S(=O)(=O)c4ccc(Cl)cc4)C3)n2)c1 [Compound 6, (R)-(3-(5-(2-(1-(4-chlorophenylsulfonyl)piperidin-3-ylamino)pyrimidin-4-yl)imidazo[2,1-b]oxazol-6-yl)phenoxy)methyl dihydrogen phosphate] |  |  | 
2 | 938 nM | 405 nM | O=P(O)(O)OCOc1cccc(-c2nc3sccn3c2-c2ccnc(NC3CCN(S(=O)(=O)c4ccc(Cl)cc4)CC3)n2)c1 [Compound 8, (3-(5-(2-(1-(4-chlorophenylsulfonyl)piperidin-4-ylamino)pyrimidin-4-yl)imidazo[2,1-b]thiazol-6-yl)phenoxy)methyl dihydrogen phosphate] |  |  | 
3 | 161 nM | > 3300 nM | O=P(O)(O)OCOc1cccc(-c2nc3occn3c2-c2ccnc(NC3CCN(S(=O)(=O)C4CC4)CC3)n2)c1 [Compound 13, (3-(5-(2-(1-(cyclopropylsulfonyl)piperidin-4-ylamino)pyrimidin-4-yl)imidazo[2,1-b]oxazol-6-yl)phenoxy)methyl dihydrogen phosphate] |  |  | 
4 | 4 nM | 1160 nM | Cn1ccc(S(=O)(=O)N2CCC[C@@H](Nc3nccc(-c4c(-c5cccc(OCOP(=O)(O)O)c5)nc5sccn45)n3)C2)n1 [Compound 16, (R)-(3-(5-(2-(1-(1-methyl-1H-pyrazol-3-ylsulfonyl)piperidin-3-ylmino)pyrimidin-4-yl)imidazo[2,1-b]thiazol-6-yl)phenoxy)methyl dihydrogen phosphate] |  | ~4 fold | ~193 fold
5 | 141 nM | 1160 nM | Cn1ccc(S(=O)(=O)N2CCC(Nc3nccc(-c4c(-c5cccc(OCOP(=O)(O)O)c5)nc5occn45)n3)CC2)n1 [Compound 21, (3-(5-(2-(1-(1-methyl-1H-pyrazol-3-ylsulfonyl)piperidin-4-ylamino)pyrimidin-4-yl)imidazo[2,1-b]oxazol-6-yl)phenoxy)methyl dihydrogen phosphate] |  |  | 
6 | 52 nM | 28 nM | Cn1ccc(S(=O)(=O)N2CCC[C@@H](Nc3nccc(-c4c(-c5ccc(F)c(OCOP(=O)(O)O)c5)nc5occn45)n3)C2)n1 [Compound 24, (R)-(2-fluoro-5-(5-(2-(1-(1-methyl-1H-pyrazol-3-ylsulfonyl)piperidin-3-ylamino)pyrimidin-4-yl)imidazo[2,1-b]oxazol-6-yl)phenoxy)methyl dihydrogen phosphate] |  |  | 

Continued, molecule first:

Row | Compound | EC50 [1] | IC50 [2, 3] | IC50 [2] | deviation in EC50 (cell-based ERK inhibition) relative to compound 14 [1] | increase in IC50 relative to compound 14 [2]
7 | O=S(=O)(c1ccc(Cl)cc1)N1CCC[C@@H](Nc2nccc(-c3c(-c4cccc(O)c4)nc4sccn34)n2)C1 [Compound 1, (R)-3-(5-(2-(1-(4-chlorophenylsulfonyl)piperidin-3-ylamino)pyrimidin-4-yl)imidazo[2,1-b]thiazol-6-yl)phenol] | 11 nM | 6 nM |  |  | 
8 | O=P(O)(O)Oc1cccc(-c2nc3sccn3c2-c2ccnc(N[C@@H]3CCCN(S(=O)(=O)c4ccc(Cl)cc4)C3)n2)c1 [Compound 2, (R)-3-(5-(2-(1-(4-chlorophenylsulfonyl)piperidin-3-ylamino)pyrimidin-4-yl)imidazo[2,1-b]thiazol-6-yl)phenyl dihydrogen phosphate] | 260 nM |  | 1900 nM |  | 
9 | O=P(O)(O)OCOc1cccc(-c2nc3sccn3c2-c2ccnc(N[C@@H]3CCCN(S(=O)(=O)c4ccc(Cl)cc4)C3)n2)c1 [Compound 3, (R)-(3-(5-(2-(1-(4-chlorophenylsulfonyl)piperidin-3-ylamino)pyrimidin-4-yl)imidazo[2,1-b]thiazol-6-yl)phenoxy)methyl dihydrogen phosphate] | 71 nM | 375 nM |  |  | 
10 | O=P(O)(O)Oc1cccc(-c2nc3occn3c2-c2ccnc(N[C@@H]3CCCN(S(=O)(=O)c4ccc(Cl)cc4)C3)n2)c1 [Compound 5, (R)-3-(5-(2-(1-(4-chlorophenylsulfonyl)piperidin-3-ylamino)pyrimidin-4-yl)imidazo[2,1-b]oxazol-6-yl)phenyl dihydrogen phosphate] | 127 nM |  | 1900 nM |  | 
11 | O=P(O)(O)Oc1cccc(-c2nc3occn3c2-c2ccnc(NC3CCN(S(=O)(=O)c4ccc(F)cc4)CC3)n2)c1 [Compound 10, 3-(5-(2-(1-(4-fluorophenylsulfonyl)piperidin-4-ylamino)pyrimidin-4-yl)imidazo[2,1-b]oxazol-6-yl)phenyl dihydrogen phosphate] | 88 nM |  | 1170 nM |  | 
12 | O=P(O)(O)Oc1cccc(-c2nc3occn3c2-c2ccnc(NC3CCN(S(=O)(=O)C4CC4)CC3)n2)c1 [Compound 12, 3-(5-(2-(1-(cyclopropylsulfonyl)piperidin-4-ylamino)pyrimidin-4-yl)imidazo[2,1-b]oxazol-6-yl)phenyl dihydrogen phosphate] | 177 nM |  | > 3300 nM |  | 
13 | Cn1ccc(S(=O)(=O)N2CCC[C@@H](Nc3nccc(-c4c(-c5cccc(OP(=O)(O)O)c5)nc5sccn45)n3)C2)n1 [Compound 15, (R)-3-(5-(2-(1-(1-methyl-1H-pyrazol-3-ylsulfonyl)piperidin-3-ylamino)pyrimidin-4-yl)imidazo[2,1-b]thiazol-6-yl)phenyl dihydrogen phosphate] | 8 nM |  | 2410 nM | about 2 fold | ~400 fold
14 | Cn1ccc(S(=O)(=O)N2CCC[C@@H](Nc3nccc(-c4c(-c5cccc(OP(=O)(O)O)c5)nc5occn45)n3)C2)n1 [Compound 18, (R)-3-(5-(2-(1-(1-methyl-1H-pyrazol-3-ylsulfonyl)piperidin-3-ylamino)pyrimidin-4-yl)imidazo[2,1-b]oxazol-6-yl)phenyl dihydrogen phosphate] | 87 nM |  | > 3300 nM |  | 
15 | Cn1ccc(S(=O)(=O)N2CCC[C@@H](Nc3nccc(-c4c(-c5ccc(F)c(OP(=O)(O)O)c5)nc5occn45)n3)C2)n1 [Compound 23, (R)-2-fluoro-5-(5-(2-(1-(1-methyl-1H-pyrazol-3-ylsulfonyl)piperidin-3-ylamino)pyrimidin-4-yl)imidazo[2,1-b]oxazol-6-yl)phenyl dihydrogen phosphate] | 9 nM |  | 1050 nM |  | 
